Source: article PMC11594329, “Development of LAT1-Selective Nuclear Medicine Therapeutics Using Astatine-211” (International Journal of Molecular Sciences, 2024)
Entries after “also recorded” stand apart in the source; their conditions may differ.

Key:
PANC-1 cells = experiment: Uptake in PANC-1 cell line; type: cell-based; settings: for Uptake of optical isomers: %ID/mg protein
Experimental: Each cell line was seeded in 24 wells at 1 × 10^5 cells/mL and allowed to become sub-confluent on the day of the experiment. Cells were washed with PBS (-) (Fujifilm Wako Pure Chemical, Osaka, Japan) prior to the addition of the compound, which was then replaced with uptake buffer. After treating the cells with the same dose, they were collected at predetermined time points. The cell dose was measured using a γ-counter (Wizard^2 2480; PerkinElmer, Waltham, MA, USA), and the protein content of the sample was determined. Protein content was measured using the BCA method, and the dose was corrected using the protein content (Protein Assay BCA kit, Fujifilm Wako Pure Chemical).
Figure 2 Comparison of uptake between the labeled compounds. (A) Relation between uptake ratio and LAT1 expression level. Uptake ratios were compared between LAT1-Tet/HEK293 cells. The Y-axis represents the uptake ratio, and the X-axis is concentration of Doxycycline (Dox) (TaKaRa Bio, Shiga, Japan). The collection time was 30 min after treatment. The expression of LAT1 increased with increasing amounts of Dox. (B) Comparison of uptake in PANC-1 cell line. The collection times were 0.5, 1, 5 and 10 min after treatment.
Figure 3 Comparison of intracellular uptake of […]-AAMT-O-Me L-isomer and ^211At-AAMT-O-Me D-isomer of ^211At-AAMT-O-Me. (A) Uptake in Mock/HEK293, LAT1/HEK293, and […] lines. (B) Uptake in PANC-1 cells. The y-axis represents %ID/mg protein. BCH: -Amino-2-norbornanecarboxylic acid. BCH was treated at 20 mM. ** p < 0.01, *** p < 0.001.
The PANC-1 cell line was obtained from the RIKEN Cell Bank and maintained in RPMI 1640 medium (Fujifilm Wako Pure Chemical, Osaka, Japan) supplemented with 10% inactivated fetal bovine serum (Thermo Fisher Scientific, Waltham, MA, USA). Mock/HEK293, LAT1/HEK293, and LAT2/HEK203 cells were kindly provided by Dr. Kanai. Cell lines controlling LAT1 expression were constructed using the Tet-on system. […]

PANC-1 tumor model = experiment: Tissue distribution in nude mice (PANC-1 tumor model); type: in vivo, BALB/c nu/nu mice
Experimental: BALB/c nu/nu mice (male, 5 weeks old) were purchased from Japan SLC (Shizuoka, Japan) and subcutaneously transplanted at a density of 1 × 10^7 cells/mouse. PANC-1 cells that reached the logarithmic growth phase were transplanted subcutaneously by mixing a 1 × 10^8 cells/mL cell suspension with an equivalent volume of Matrigel (Corning, Corning, NY, USA) to obtain 1 × 10^7 cells per mouse. Experiments were performed after the size of the transplanted tumor had exceeded 50 mm^3. The doses in the distribution experiments were as follows: ^211At-AAMT-OH-L (0.501 ± 0.011 MBq/mouse, 19.91 ± 0.59 g, n = 3) and ^211At-AAMT-O-Me-L (0.384 ± 0.003 MBq/mouse, 19.18 ± 0.38 g, n = 6 for Table 3), ^211At-AAMT-O-Me-L (158.10 ± 2.94 kBq/mouse, 19.27 ± 0.64 g, n = 6) and ^211At-AAMT-O-Me-D (135.08 ± 2.35 kBq/mouse, 18.64 ± 0.97 g, n = 6), ^211At-AAMT-O-Et-L (0.682 ± 0.011 MBq/mouse, 20.25 ± 1.41 g, n = 6), ^211At-AAMT-O-Pr-L (0.927 ± 0.020 MBq/mouse, 21.74 ± 0.37 g, n = 6).

[1] = nude mice (PANC-1 tumor model), 1 h after injection
[2] = nude mice (PANC-1 tumor model), 3 h after injection
[3] = nude mice (PANC-1 tumor model), 24 h after injection
[4] = nude mice (PANC-1 tumor model), after 24 h

COc1ccc(C[C@@](C)(N)C(=O)O)cc1[211At] [^211At-AAMT-O-Me-D]
Uptake of optical isomers (PANC-1 cells): taken up less
Tissue distribution, Bladder (PANC-1 tumor model; [1]): 1.76 ± 1.64 %ID/g
Tissue distribution, Blood (PANC-1 tumor model; [1]): 3.52 ± 1.89 %ID/g
Tissue distribution, Bone (PANC-1 tumor model; [1]): 0.30 ± 0.12 %ID/g
Tissue distribution, Brain (PANC-1 tumor model; [1]): 0.15 ± 0.01 %ID/g
Tissue distribution, Cecum (PANC-1 tumor model; [1]): 2.35 ± 1.73 %ID/g
Tissue distribution, Colon (PANC-1 tumor model; [1]): 0.85 ± 0.49 %ID/g
Tissue distribution, Heart (PANC-1 tumor model; [1]): 0.53 ± 0.08 %ID/g
Tissue distribution, Kidney (PANC-1 tumor model; [1]): 1.40 ± 0.56 %ID/g
Tissue distribution, Liver (PANC-1 tumor model; [1]): 3.09 ± 0.39 %ID/g
Tissue distribution, Lung (PANC-1 tumor model; [1]): 2.24 ± 0.89 %ID/g
Tissue distribution, Pancreas (PANC-1 tumor model; [1]): 0.61 ± 0.44 %ID/g
Tissue distribution, Salivary glands (PANC-1 tumor model; [1]): 0.30 ± 0.10 %ID/g
Tissue distribution, Small intestine (PANC-1 tumor model; [1]): 2.05 ± 0.81 %ID/g
Tissue distribution, Spleen (PANC-1 tumor model; [1]): 1.70 ± 0.74 %ID/g
Tissue distribution, Stomach (PANC-1 tumor model; [1]): 1.43 ± 0.94 %ID/g
Tissue distribution, Testis (PANC-1 tumor model; [1]): 1.05 ± 0.77 %ID/g
Tissue distribution, Thyroid (PANC-1 tumor model; [1]): 0.14 ± 0.04 %ID/g
Tissue distribution, Tumor (PANC-1 tumor model; [1]): 3.25 ± 1.39 %ID/g
Tissue distribution, Bladder (PANC-1 tumor model; [2]): 1.04 ± 0.97 %ID/g
Tissue distribution, Blood (PANC-1 tumor model; [2]): 1.92 ± 1.16 %ID/g
Tissue distribution, Bone (PANC-1 tumor model; [2]): 0.26 ± 0.12 %ID/g
Tissue distribution, Brain (PANC-1 tumor model; [2]): 0.10 ± 0.03 %ID/g
Tissue distribution, Cecum (PANC-1 tumor model; [2]): 1.32 ± 0.96 %ID/g
Tissue distribution, Colon (PANC-1 tumor model; [2]): 0.40 ± 0.25 %ID/g
Tissue distribution, Heart (PANC-1 tumor model; [2]): 0.37 ± 0.03 %ID/g
Tissue distribution, Kidney (PANC-1 tumor model; [2]): 1.54 ± 0.86 %ID/g
Tissue distribution, Liver (PANC-1 tumor model; [2]): 2.60 ± 0.07 %ID/g
Tissue distribution, Lung (PANC-1 tumor model; [2]): 1.27 ± 0.40 %ID/g
Tissue distribution, Pancreas (PANC-1 tumor model; [2]): 0.48 ± 0.35 %ID/g
Tissue distribution, Salivary glands (PANC-1 tumor model; [2]): 0.33 ± 0.13 %ID/g
Tissue distribution, Small intestine (PANC-1 tumor model; [2]): 1.48 ± 0.37 %ID/g
Tissue distribution, Spleen (PANC-1 tumor model; [2]): 1.81 ± 1.19 %ID/g
Tissue distribution, Stomach (PANC-1 tumor model; [2]): 1.29 ± 0.77 %ID/g
Tissue distribution, Testis (PANC-1 tumor model; [2]): 1.64 ± 1.26 %ID/g
Tissue distribution, Thyroid (PANC-1 tumor model; [2]): 0.14 ± 0.06 %ID/g
Tissue distribution, Tumor (PANC-1 tumor model; [2]): 3.84 ± 2.10 %ID/g

COc1ccc(C[C@](C)(N)C(=O)O)cc1[211At] [^211At-AAMT-O-Me-L, (S)-2-amino-3-(3-(astato-^211At)-4-methoxyphenyl)-2-methylpropanic acid]
Uptake of optical isomers (PANC-1 cells): taken up more
Time-dependent uptake (PANC-1 cells; collection 0.5, 1, 5 and 10 min after treatment): highest uptake; also recorded: significantly higher uptake than the seed compound
Tissue distribution, Bladder (PANC-1 tumor model; [1]): 0.06 ± 0.00 %ID/g
Tissue distribution, Blood (PANC-1 tumor model; [1]): 7.85 ± 1.17 %ID/g
Tissue distribution, Bone (PANC-1 tumor model; [1]): 0.68 ± 1.27 %ID/g
Tissue distribution, Brain (PANC-1 tumor model; [1]): 0.46 ± 0.00 %ID/g
Tissue distribution, Cecum (PANC-1 tumor model; [1]): 0.46 ± 0.05 %ID/g
Tissue distribution, Colon (PANC-1 tumor model; [1]): 1.14 ± 0.27 %ID/g
Tissue distribution, Heart (PANC-1 tumor model; [1]): 0.86 ± 0.04 %ID/g
Tissue distribution, Kidney (PANC-1 tumor model; [1]): 3.56 ± 0.09 %ID/g
Tissue distribution, Liver (PANC-1 tumor model; [1]): 4.92 ± 0.24 %ID/g
Tissue distribution, Lung (PANC-1 tumor model; [1]): 5.16 ± 0.11 %ID/g
Tissue distribution, Pancreas (PANC-1 tumor model; [1]): 0.58 ± 0.01 %ID/g
Tissue distribution, Salivary glands (PANC-1 tumor model; [1]): 0.58 ± 0.05 %ID/g
Tissue distribution, Small intestine (PANC-1 tumor model; [1]): 3.40 ± 0.36 %ID/g
Tissue distribution, Spleen (PANC-1 tumor model; [1]): 4.34 ± 0.79 %ID/g
Tissue distribution, Stomach (PANC-1 tumor model; [1]): 1.32 ± 0.06 %ID/g
Tissue distribution, Testis (PANC-1 tumor model; [1]): 0.55 ± 0.02 %ID/g
Tissue distribution, Thyroid (PANC-1 tumor model; [1]): 0.20 ± 0.02 %ID/g
Tissue distribution, Tumor (PANC-1 tumor model; [1]): 7.83 ± 0.30 %ID/g
Tissue distribution, Bladder (PANC-1 tumor model; [2]): 0.09 ± 0.01 %ID/g
Tissue distribution, Blood (PANC-1 tumor model; [2]): 10.38 ± 2.28 %ID/g
Tissue distribution, Bone (PANC-1 tumor model; [2]): 0.51 ± 1.35 %ID/g
Tissue distribution, Brain (PANC-1 tumor model; [2]): 0.29 ± 0.01 %ID/g
Tissue distribution, Cecum (PANC-1 tumor model; [2]): 0.43 ± 0.16 %ID/g
Tissue distribution, Colon (PANC-1 tumor model; [2]): 0.68 ± 0.23 %ID/g
Tissue distribution, Heart (PANC-1 tumor model; [2]): 0.76 ± 0.07 %ID/g
Tissue distribution, Kidney (PANC-1 tumor model; [2]): 2.29 ± 0.07 %ID/g
Tissue distribution, Liver (PANC-1 tumor model; [2]): 4.62 ± 0.20 %ID/g
Tissue distribution, Lung (PANC-1 tumor model; [2]): 5.10 ± 0.42 %ID/g
Tissue distribution, Pancreas (PANC-1 tumor model; [2]): 0.36 ± 0.10 %ID/g
Tissue distribution, Salivary glands (PANC-1 tumor model; [2]): 0.78 ± 0.18 %ID/g
Tissue distribution, Small intestine (PANC-1 tumor model; [2]): 2.50 ± 0.42 %ID/g
Tissue distribution, Spleen (PANC-1 tumor model; [2]): 3.97 ± 0.59 %ID/g
Tissue distribution, Stomach (PANC-1 tumor model; [2]): 1.31 ± 0.32 %ID/g
Tissue distribution, Testis (PANC-1 tumor model; [2]): 0.55 ± 0.11 %ID/g
Tissue distribution, Thyroid (PANC-1 tumor model; [2]): 0.23 ± 0.04 %ID/g
Tissue distribution, Tumor (PANC-1 tumor model; [2]): 10.29 ± 0.88 %ID/g
Tissue distribution, Bladder (PANC-1 tumor model; [3]): 0.55 ± 0.13 %ID/g
Tissue distribution, Blood (PANC-1 tumor model; [3]): 0.88 ± 0.23 %ID/g
Tissue distribution, Bone (PANC-1 tumor model; [3]): 0.75 ± 0.18 %ID/g
Tissue distribution, Brain (PANC-1 tumor model; [3]): 0.13 ± 0.04 %ID/g
Tissue distribution, Cecum (PANC-1 tumor model; [3]): 2.09 ± 0.41 %ID/g
Tissue distribution, Colon (PANC-1 tumor model; [3]): 1.69 ± 0.15 %ID/g
Tissue distribution, Heart (PANC-1 tumor model; [3]): 1.29 ± 0.42 %ID/g
Tissue distribution, Kidney (PANC-1 tumor model; [3]): 1.67 ± 0.49 %ID/g
Tissue distribution, Liver (PANC-1 tumor model; [3]): 0.92 ± 0.15 %ID/g
Tissue distribution, Lung (PANC-1 tumor model; [3]): 4.43 ± 1.76 %ID/g
Tissue distribution, Pancreas (PANC-1 tumor model; [3]): 0.59 ± 0.17 %ID/g
Tissue distribution, Salivary glands (PANC-1 tumor model; [3]): 13.65 ± 5.31 %ID/g
Tissue distribution, Small intestine (PANC-1 tumor model; [3]): 1.49 ± 0.29 %ID/g
Tissue distribution, Spleen (PANC-1 tumor model; [3]): 3.12 ± 2.06 %ID/g
Tissue distribution, Stomach (PANC-1 tumor model; [3]): 8.89 ± 2.65 %ID/g
Tissue distribution, Testis (PANC-1 tumor model; [3]): 1.18 ± 0.25 %ID/g
Tissue distribution, Thyroid (PANC-1 tumor model; [3]): 9.37 ± 3.33 %ID/g
Tissue distribution, Tumor (PANC-1 tumor model; [3]): 1.86 ± 0.39 %ID/g
Accumulation remaining in tumors relative to ^211At-AAMT-OH-L (PANC-1 tumor model; [4]): 2.6 times
Blood intensity relative to ^211At-AAMT-OH-L (PANC-1 tumor model; [4]): 22 times
Increase of blood intensity in tumor-bearing mice compared with normal animals (PANC-1 tumor model; tumor-bearing mice versus ICR mice): 5 fold
